Literature values in patent publication US10251814B2, “Cefuroxime safety delivery system” (CIS PHARMA AG, priority 2011, dated 2019).
Read-outs that look alike come from different tables or passages of the source.

Legend:
endophthalmitis = settings: 16,603 patients; cefuroxime 1 mg in 0.1 ml normal saline intracameral at end of surgery; levofloxacin drops prior and subsequent to surgery
[1] = in 48 hours, at room temperature
[2] = system: human corneal endothelial cells; settings: 24-hour exposure
[3] = 1 mg in 0.1 ml of aqueous solution

Structure (SMILES): CO/N=C(\C(=O)N[C@@H]1C(=O)N2C(C(=O)O)=C(COC(N)=O)CS[C@H]12)c1ccco1 [cefuroxime]
- reduction of the risk for endophthalmitis (endophthalmitis): nearly five fold
- hydrolysis rate in aqueous solution [1]: about 10%
- mean intracameral concentration (after one hour, intracameral administration of 1 mg in 0.1 ml): 0.756 mg/mL
- mean intracameral concentration (shortly after intracameral administration of 1 mg in 0.1 ml): 2.742 mg/mL
- concentration resulting in a significant reduction in cell viability [2]: exceeding 2.75 mg/ml
- safety of intracameral administration [3]: has been established
